From US20170129911A1, “COMPLEXES COMPRISING A PLATINUM COMPOUND AND AN IMMUNE CHECKPOINT INHIBITOR AND RELATED METHODS” (Massachusetts Institute of Technology, priority 2015, published 2017)
“Also recorded” adds a separate entry of the source.

Key:
SKOV3 cells [1] = assay: Cell cycle analysis by flow cytometry (DNA content)
Eμ-Myc lymphoma cells = assay: RNAi signature (GFP competition) assay; settings: LD80-90 dose, 72 h
IDO = IDO (Homo sapiens, UniProt P14902); assay: Cellular determination of kynurenine by HPLC in medium of SKOV3 cells; settings: 2 10 μM vs (D)-1-MT 1 mM
Sequence of IDO (P14902 whole entry): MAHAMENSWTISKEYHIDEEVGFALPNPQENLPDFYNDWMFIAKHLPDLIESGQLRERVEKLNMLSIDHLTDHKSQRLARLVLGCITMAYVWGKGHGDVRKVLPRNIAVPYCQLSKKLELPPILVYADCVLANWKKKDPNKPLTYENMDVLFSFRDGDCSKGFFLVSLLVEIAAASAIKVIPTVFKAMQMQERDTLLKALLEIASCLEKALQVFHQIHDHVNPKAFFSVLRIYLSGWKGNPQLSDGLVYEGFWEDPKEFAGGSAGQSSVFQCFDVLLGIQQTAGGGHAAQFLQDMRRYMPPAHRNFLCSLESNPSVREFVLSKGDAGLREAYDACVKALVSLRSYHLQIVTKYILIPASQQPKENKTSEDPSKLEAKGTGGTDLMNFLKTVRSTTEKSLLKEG

[2] = Tolerability/toxicity in mice; type: in vivo
[3] = In vivo blood stability in mice
Description: The hydrophobic complex 2 was extracted with octanol, diluted, and the Pt concentration was determined by GFAAS.
The octanol extracts were diluted with methanol and analysed by GFAAS.

human IDO in SKOV3 cells = assay: Immunoblotting and qRT-PCR of IDO expression in SKOV3 cells; type: cell-based; settings: immunoblotting and qRT-PCR
Description: Total RNA was isolated with the Qiagen RNAeasy RNA isolation kit (Hilden, Germany) and cDNA was synthesized with the Applied Biosystems reverse-transcription-kit (Foster City, Calif., USA). qRT-PCR was performed in a Light cycler 480 II thermo cycler with SYBR Green PCR Mastermix (Roche). All primers were separated by at least one intron on the genomic DNA to exclude its amplification. PCR reactions were checked by including no-RT controls, by omission of templates, and by melting curves. Standard curves were generated for each gene. Relative quantification of gene expression was determined by comparison of threshold values. All samples were analyzed in duplicate at two different dilutions. All results were normalized to GAPDH.
Cells were washed with PBS, scraped into SDS-PAGE loading buffer (64 mM Tris-HCl (pH 6.8)/9.6% glycerol/2% SDS/5% β-mercaptoethanol/0.01% Bromophenol Blue), and incubated at 95° C. for 10 min. […] Membranes were blocked in 5% (w/v) bovine serum albumin in PBST (PBS/0.1% Tween 20) and incubated with the appropriate primary antibodies (Cell Signalling Technology and Santa Cruz). After incubation with horseradish peroxidase-conjugated secondary antibodies (Cell Signalling Technology), 1:1000, immuno complexes were detected with the ECL detection reagent (BioRad) and analyzed using UVP biospectrum imaging system fitted with a chemiluminescence filter.

HSA = HSA (Homo sapiens, UniProt P02768); assay: HSA binding (FPLC, GFAAS, ESI-MS); settings: ESI mass-spectrometric analysis
Sequence of HSA (P02768 25-609): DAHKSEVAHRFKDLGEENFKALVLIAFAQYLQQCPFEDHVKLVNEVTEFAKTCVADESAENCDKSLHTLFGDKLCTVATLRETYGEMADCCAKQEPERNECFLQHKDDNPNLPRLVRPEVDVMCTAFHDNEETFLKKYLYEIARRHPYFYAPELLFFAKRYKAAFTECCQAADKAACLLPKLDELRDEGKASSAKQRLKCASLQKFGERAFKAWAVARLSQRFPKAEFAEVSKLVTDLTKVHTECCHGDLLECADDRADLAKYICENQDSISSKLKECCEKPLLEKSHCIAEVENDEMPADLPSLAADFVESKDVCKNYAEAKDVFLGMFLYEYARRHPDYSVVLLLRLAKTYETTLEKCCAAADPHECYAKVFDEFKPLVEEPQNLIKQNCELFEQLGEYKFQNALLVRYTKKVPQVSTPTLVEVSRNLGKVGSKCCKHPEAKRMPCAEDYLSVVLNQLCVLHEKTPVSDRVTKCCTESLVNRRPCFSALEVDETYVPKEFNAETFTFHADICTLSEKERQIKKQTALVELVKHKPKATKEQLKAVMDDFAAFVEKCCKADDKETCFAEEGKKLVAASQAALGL

Solubility in PBS = type: physicochemical
[4] = system: A2780/CP70 human ovarian cancer cells; assay: Cytotoxicity MTT assay, A2780/CP70; type: cell-based; settings: cisplatin-sensitive and resistant ovarian cancer cell lines
Description: Ovarian carcinoma cells, NIH:OVCAR3, A2780, A2780/CP70, and SKOV3 were purchased from the American Type Culture Collection (ATCC, Rockville Md.). Peripheral blood mononuclear cells (PBMCs) of two different donors were obtained from Zen Bio Inc. (Research Triangle, NC). Cancer cell lines were maintained in Roswell Park Memorial Institute (RPMI) medium (glutamine-free supplemented with 10% fetal bovine serum, Atlanta Biologics, Atlanta Ga.) and 1% penicillin/streptomycin. PBMCs were thawed in specialized medium (10% […], 40% RPMI and 50% FBS) and subsequently cultured in RPMI containing 20% FBS. For T-cell proliferation experiments, PBMCs were stimulated by the addition of phytohemagglutinin (PHA-P). All cells were grown at 310 K in a humidified atmosphere containing 5% CO2. D-1-methyltryptophan, L-tryptophan and L-kynurenine were purchased from Sigma Aldrich.
The colorimetric MTT assay was used to determine the toxicity of 1, 2, and cisplatin. Cells (2×10^3) were seeded in each well of a 96-well plate. […] Cisplatin was prepared as a 5 mM solution in PBS and diluted using media. 1, 2 and C16—Pt-Suc-NHC2H4OH were prepared as 10 mM solution in DMSO and diluted using media. The final volume amount of DMSO in each well was 0.5%, and which was present in the untreated control as well. Cells co-incubated with cisplatin and (D)-1-MT were first pre-treated with 1 mM (D)-1-MT. […] The RPMI/MTT, mixture was aspirated and 100 μL of DMSO was added to dissolve the resulting purple formazan crystals. The absorbance of the solution wells was read at 570 and 650 nm. Absorbance values were normalized to DMSO-containing control wells and plotted as concentration of test compound versus % cell viability. IC50 values were interpolated from the resulting dose dependent curves. The reported IC50 values are the average of at least three independent experiments, each of which consisted of six replicates per concentration level.

SKOV3 cells [5] = assay: Immunoblotting of DNA damage response markers; type: cell-based, human; settings: up to 48 h and 72 h
Description: The ability of 2 to induce DNA damage was investigated by monitoring changes in expression of markers of the damage response pathway by immunoblotting analyses.
Cells were washed with PBS, scraped into SDS-PAGE loading buffer (64 mM Tris-HCl (pH 6.8)/9.6% glycerol/2% SDS/5% β-mercaptoethanol/0.01% Bromophenol Blue), and incubated at 95° C. for 10 min. Whole cell lysates were resolved by 4-20% sodium dodecylsulphate polyacylamide gel electrophoresis (SDS-PAGE; 200 V for 25 min) followed by electro transfer to polyvinylidene difluoride membrane, PVDF (350 mA for 1 h). Membranes were blocked in 5% (w/v) bovine serum albumin in PBST (PBS/0.1% Tween 20) and incubated with the appropriate primary antibodies (Cell Signalling Technology and Santa Cruz). After incubation with horseradish peroxidase-conjugated secondary antibodies (Cell Signalling Technology), 1:1000, immuno complexes were detected with the ECL detection reagent (BioRad) and analyzed using UVP biospectrum imaging system fitted with a chemiluminescence filter.

SKOV3 cells [6] = assay: Subcellular distribution of platinum (GFAAS); type: cell-based, human; settings: SKOV3, 5 μM, 17 h
Description: To gain further insight into the mode of action was studied of 1 and 2, the subcellular distribution of platinum. SKOV3 cells were incubated with the drug candidates (5 μM) for 17 h, using cisplatin as a control. The platinum content was measured by using GFAAS.
To measure cellular uptake, ca. 20 million SKOV3 cells were treated with 5 μM compounds 1, 2 and cisplatin at 37° C. for 17 h. The media were removed, and the cells were washed with PBS solution (1 mL×3), harvested, and centrifuged. The cell pellet was suspended in an appropriate volume of PBS to obtain a homogeneous suspension (100 μL). The nuclear and cytoplasmic extraction kit (NE-PER, Thermo Scientific Inc.) was used to extract the separate cytoplasmic, nuclear, and pelleted fractions. The fractions were mineralized with 70% HNO3 and then heated at 95° C. for 10 min. The platinum content was analyzed by GF-AAS. Cellular platinum levels were expressed as pmol of Pt per million cells. Results are presented as the mean of three determinations for each data point.

SMILES: CCCCCCCCCCCCCCCCNC(=O)[O][Pt]([NH2])([NH2])([Cl])([Cl])[O]C(=O)CCC(=O)NCCOC(=O)[C@H](N)Cc1cn(C)c2ccccc12 (mixture of isomers) [Compound 2, cis,cis,trans-[Pt(NH3)2Cl2(O2CC2H4OCNHC2H4O2C-D-1MT)(O2CNHC16H33)]]
- cell cycle arrest phase (SKOV3 cells [1]): cell cycle block at G1 phase
- RNAi signature (Eμ-Myc lymphoma cells): strong p53 and Chk2 shRNA enrichment
- block of kynurenine release in the medium in comparison to (D)-1-MT (IDO): by a factor of three
- toxicity / tolerance in mice [2]: low toxicity in mice; also recorded: mice are tolerant
- Pt concentration in blood (octanol extract) ([3]; 24 h after i.v. NP formulation of 2, 8 mg/kg): non-detectable levels
- half-life ([3]; female, Balb/c, mouse, whole blood, iv, 8 mg/kg): ~1 h
- IDO protein expression (IDO inhibition) (human IDO in SKOV3 cells): effectively block IDO protein expression
- binding to HSA (HSA): binds HSA
- solubility in PBS (Solubility in PBS): low solubility
- cross-resistance with cisplatin [4]: no cross-resistance with cisplatin
- expression of DNA damage response markers (SKOV3 cells [5]): marked time-dependent increase in expression of phosphorylated ATR, ATM, BRCA1, Chk1, Chk2, H2AX, and p53
- platinum content within the nucleus (SKOV3 cells [6]): comparable to that of cisplatin
